From patent publication US9931309B2, “Curcumin-sophorolipid complex” (COUNCIL OF SCIENTIFIC & INDUSTRIAL RESEARCH, priority 2014, dated 2018)

Tests used:
MCF-7 cells = test: cells; format: cell-based
Description: (§1) All the experiments were performed in triplicates and repeated twice and the data has been presented as mean±SD. Statistical analysis was conducted with the Graph Pad 4 prism program using one-way ANOVA. The p values used for comparisons were <0.05. IC50 values were calculated using Kyplot software.
(§2) In order to determine whether acidic sophorolipid enhanced the bioavailability of Curcumin in cancerous cell lines, the cytotoxic potential of the aqueous SL(A)+Cur complex was tested in breast cancer lines MCF-7 and MDA-MB-231 and was compared with that of aqueous SL(A), Cur in water, and Cur dissolved in ethanol, the latter was used as a positive control.
(§3) Cyto-toxicity analysis of the present curcumin-SL(A) complex was performed using mammalian breast cancer cell lines by the MTT dye uptake assay. […] MTT solution (5 mg/ml) was added to each well and the cells were cultured for another 4 h at 37° C. in a 5% CO2 incubator. The formazan crystals formed were dissolved by addition of 90 μL of SDS-DMF (20% SDS in 50% DMF). After 15 min, the concentration of colored formazan derivative was determined by measuring optical density (OD) using the ELISA microplate reader (Biorad, Hercules, Calif.) at 570 nm (OD: 570-630 nm). The percentage viability was calculated as: % Viability=[OD of treated cells/OD of control cells]×100 Percentage Viability Observed Post Treatment

[1] = Appearance / solubilization of aqueous test solutions; format: physicochemical; conditions: 100 μg/ml
Description: Optical properties of the present complex SL(A)+ curcumin complex were determined by UV-Vis and Photoluminescence studies analysis. Accordingly, the optical properties of SL(A), curcumin and the present sophorolipid-curcumin (SL(A)+Cur) self-assembly were compared. UV-Vis absorption spectra were recorded on Varian CARY 100 Bio UV-Vis spectrophotometer respectively, with 10 mm quartz cell at 25±0.1° C. For recording the spectra, 3 ml solutions of SL(A), Cur and SL(A)+Cur solution were prepared with having a concentration of 100 μg/ml. The solutions of this were mixed gently and subsequently the spectra were recorded.
Visible differences in the appearance of each of the test solutions were observed.

[2] = Dynamic Light Scattering (DLS) measurements, particle size; format: physicochemical; conditions: 10 mg dissolved in 10 ml H2O
Description: The Dynamic Light Scattering (DLS) measurements were carried using the out on Brookhaven Instrument model 90 Plus Particle Size Analyzer. The solutions, i.e. Cur, SL(A) and the present SL(A)+Curcumin nano-assembly were analyzed at a constant shutter opening diameter in the DLS apparatus. […] This was also confirmed with the results obtained by SEM and TEM analysis depicted in FIG. 4. Field emission scanning electron microscopy images acquired on FEI QUANTA 200 microscope, equipped with a tungsten filament gun, operating at WD 10.6 mm and 20 kV. A 10 μL aliquot of all three sample solution were placed on silicon wafer and fixed on copper stubs with help of carbon tape. The samples were dried at room temperature for overnight and images were recorded without gold coating.

MDA-MB-231 cells = test: MTT cytotoxicity assay in MDA-MB-231 cells; format: cell-based
Description: as §1, §2, §3

Zeta potential = format: physicochemical; conditions: dispersions without any dilution
Description: The surface charges of the SL(A), Cur and SL(A)+Cur were determined using a zeta potential analyzer (Brookhaven Instruments Corporation, NY). The average zeta potentials of the nano self-assembly dispersions were determined without any dilution.

appearance of the solution [1]: turbid | hydrodynamic radius [2]: about 818 nm | hydrodynamic radius ([2]; listed as Curcumin): 818.6 nm | zeta potential (Zeta potential): −15.14 mV
Structure (SMILES): COc1cc(/C=C/C(=O)CC(=O)/C=C/c2ccc(O)c(OC)c2)ccc1O [Cur, diferuloylmethane]
viability at 5 µg/mL (MCF-7 cells; Homo sapiens, MCF7): 100% | viability at 10 µg/mL (MCF-7 cells; Homo sapiens, MCF7): 100% | viability at 20 µg/mL (MCF-7 cells; Homo sapiens, MCF7): 100% | viability at 40 µg/mL (MCF-7 cells; Homo sapiens, MCF7): 95% | viability at 80 µg/mL (MCF-7 cells; Homo sapiens, MCF7): 93% | viability at 120 µg/mL (MCF-7 cells; Homo sapiens, MCF7): 91% | activity against the cancerous cell lines (MCF-7 cells; MCF-7): no activity | concentration from which anticancer activity (growth inhibition) commences (MCF-7 cells; MCF-7, FIG. 7(a), for the complex as concentration of Cur): 40 µg/mL | relative toxicity at low to moderate dose (MCF-7 cells; MCF-7, low to moderate dose range (5-20 μg/ml)): more toxic | concentration at which cytotoxicity is exhibited (MDA-MB-231 cells): 20000 ng/mL | activity against the cancerous cell lines (MDA-MB-231 cells; MDA-MB-231): no activity | % viability (MDA-MB-231 cells; MDAMB 231, 5 μg/ml): 100% | % viability (MDA-MB-231 cells; MDAMB 231, 10 μg/ml): 100% | % viability (MDA-MB-231 cells; MDAMB 231, 20 μg/ml): 100% | % viability (MDA-MB-231 cells; MDAMB 231, 40 μg/ml): 95% | % viability (MDA-MB-231 cells; MDAMB 231, 80 μg/ml): 93% | % viability (MDA-MB-231 cells; MDAMB 231, 120 μg/ml): 91%
